Legend:
Alexandergrass = experiment: Test D Alexandergrass; format: in vivo, Brachiaria plantaginea; conditions: Preemergence, 0 to 100 scale
Outline: (§1)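 Scoring used a 0–100 visual injury scale, with 0 meaning no effect and 100 complete control, assessed 14–21 days after application alongside untreated pots. Preemergence treatments went onto sandy loam surfaces of separately potted seeds within a day of sowing.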

bermuda-grass = experiment: Test D bermudagrass; format: in vivo, Cynodon dactylon; conditions: Preemergence, 0 to 100 scale
Outline: as §1

common pursiane = experiment: Test D common purslane; format: in vivo, Portulaca oleracea
Outline: as §1

common ragweed = experiment: Test D common ragweed; format: in vivo, Ambrosia elatior; conditions: Preemergence, 0 to 100 scale
Outline: as §1

common groundsel = experiment: Test D common groundsel; format: in vivo, Senecio vulgaris; conditions: Preemergence, 0 to 100 scale
Outline: as §1

goosegrass = experiment: Test D goosegrass; format: in vivo, Eleusine indica; conditions: Preemergence, 0 to 100 scale
Outline: as §1

guineagrass = experiment: Test D guineagrass; format: in vivo, Panicum maximum; conditions: Preemergence, 0 to 100 scale
Outline: as §1

Johnson grass = experiment: Test D Johnson grass; format: in vivo, Sorghum halepense; conditions: Preemergence, 0 to 100 scale
Outline: as §1

large crabgrass = experiment: Test D large crabgrass; format: in vivo, Digitaria sanguinalis; conditions: Preemergence, 0 to 100 scale
Outline: as §1

pitted morningglory = experiment: Test D pitted morningglory; format: in vivo, Ipomoea lacunosa; conditions: Preemergence, 0 to 100 scale
Outline: as §1

purple nutsedge = experiment: Test D purple nutsedge; format: in vivo, Cyperus rotundus; conditions: Preemergence, 0 to 100 scale
Outline: as §1

sandbur = experiment: Test D sandbur; format: in vivo, Cenchrus echinatus; conditions: Preemergence, 0 to 100 scale
Outline: as §1

Spanishneedles = experiment: Test D Spanishneedles; format: in vivo, Bidens bipinnata; conditions: Preemergence, 0 to 100 scale
Outline: as §1

surinam grass = experiment: Test D surinam grass; format: in vivo, Brachiaria decumbens; conditions: Preemergence, 0 to 100 scale
Outline: as §1

tall mallow = experiment: Test D tall mallow; format: in vivo, Malva sylvestris; conditions: Preemergence, 0 to 100 scale
Outline: as §1

[1] = Rate 16 g/ha, 0 no injury, 100 complete control
[2] = Rate 32 g/ha, 0 no injury, 100 complete control
[3] = Rate 64 g/ha, 0 no injury, 100 complete control
[4] = Rate 125 g/ha, 0 no injury, 100 complete control
[5] = Rate 250 g/ha; Preemergence; 0 to 100 scale
[6] = Rate 500 g/ha; Preemergence; 0 to 100 scale

CCn1c(=O)on(C(=O)N(c2ccc(Cl)cc2)C(C)C)c1=O [Compound 108]
Plant response rating, Alexandergrass (Alexandergrass; [1]): 20
Plant response rating, Alexandergrass (Alexandergrass; [2]): 20
Plant response rating, Alexandergrass (Alexandergrass; [3]): 85
Plant response rating, Alexandergrass (Alexandergrass; [4]): 98
Plant response rating, Alexandergrass (Alexandergrass; Rate 250 g/ha): 100
Plant response rating, Alexandergrass (Alexandergrass; Rate 500 g/ha): 100
Plant response rating, Bermudagrass (bermuda-grass; [1]): 85
Plant response rating, Bermudagrass (bermuda-grass; [2]): 98
Plant response rating, Bermudagrass (bermuda-grass; [3]): 100
Plant response rating, Bermudagrass (bermuda-grass; [4]): 100
Plant response rating, Bermudagrass (bermuda-grass; Rate 250 g/ha): 100
Plant response rating, Bermudagrass (bermuda-grass; Rate 500 g/ha): 100
Plant response rating, C. purslane (common pursiane; Rate 16 g/ha; Preemergence; 0 to 100 scale, 0 no injury, 100 complete control): 0
Plant response rating, C. purslane (common pursiane; Rate 32 g/ha; Preemergence; 0 to 100 scale, 0 no injury, 100 complete control): 0
Plant response rating, C. purslane (common pursiane; Rate 64 g/ha, Preemergence; 0 to 100 scale, 0 no injury, 100 complete control): 0
Plant response rating, C. purslane (common pursiane; Rate 125 g/ha, Preemergence; 0 to 100 scale, 0 no injury, 100 complete control): 0
Plant response rating, C. purslane (common pursiane; [5]): 0
Plant response rating, C. purslane (common pursiane; Rate 500 g/ha, Preemergence; 0 to 100 scale): 80
Plant response rating, C. purslane (common pursiane; [6]): 0
Plant response rating, C. ragweed (common ragweed; [1]): 0
Plant response rating, C. ragweed (common ragweed; [2]): 0
Plant response rating, C. ragweed (common ragweed; [3]): 0
Plant response rating, C. ragweed (common ragweed; [4]): 0
Plant response rating, C. ragweed (common ragweed; Rate 250 g/ha): 0
Plant response rating, C. ragweed (common ragweed; Rate 500 g/ha): 80
Plant response rating, Com. groundsel (common groundsel; [1]): 65
Plant response rating, Com. groundsel (common groundsel; [2]): 75
Plant response rating, Com. groundsel (common groundsel; [3]): 85
Plant response rating, Com. groundsel (common groundsel; [4]): 100
Plant response rating, Com. groundsel (common groundsel; Rate 250 g/ha): 100
Plant response rating, Com. groundsel (common groundsel; Rate 500 g/ha): 100
Plant response rating, Goosegrass (goosegrass; [1]): 60
Plant response rating, Goosegrass (goosegrass; [2]): 85
Plant response rating, Goosegrass (goosegrass; [3]): 98
Plant response rating, Goosegrass (goosegrass; [4]): 100
Plant response rating, Goosegrass (goosegrass; Rate 250 g/ha): 100
Plant response rating, Goosegrass (goosegrass; Rate 500 g/ha): 100
Plant response rating, Guineagrass (guineagrass; [1]): 0
Plant response rating, Guineagrass (guineagrass; [2]): 85
Plant response rating, Guineagrass (guineagrass; [3]): 98
Plant response rating, Guineagrass (guineagrass; [4]): 98
Plant response rating, Guineagrass (guineagrass; Rate 250 g/ha): 100
Plant response rating, Guineagrass (guineagrass; Rate 500 g/ha): 100
Plant response rating, Johnsongrass (Johnson grass; [1]): 0
Plant response rating, Johnsongrass (Johnson grass; [2]): 20
Plant response rating, Johnsongrass (Johnson grass; [3]): 20
Plant response rating, Johnsongrass (Johnson grass; [4]): 40
Plant response rating, Johnsongrass (Johnson grass; Rate 250 g/ha): 85
Plant response rating, Johnsongrass (Johnson grass; Rate 500 g/ha): 85
Plant response rating, Large crabgrass (large crabgrass; [1]): 85
Plant response rating, Large crabgrass (large crabgrass; [2]): 100
Plant response rating, Large crabgrass (large crabgrass; [3]): 100
Plant response rating, Large crabgrass (large crabgrass; [4]): 100
Plant response rating, Large crabgrass (large crabgrass; Rate 250 g/ha): 100
Plant response rating, Large crabgrass (large crabgrass; Rate 500 g/ha): 100
Plant response rating, P. morninglory (pitted morningglory; [1]): 0
Plant response rating, P. morninglory (pitted morningglory; [2]): 0
Plant response rating, P. morninglory (pitted morningglory; [3]): 0
Plant response rating, P. morninglory (pitted morningglory; [4]): 0
Plant response rating, P. morninglory (pitted morningglory; Rate 250 g/ha): 0
Plant response rating, P. morninglory (pitted morningglory; Rate 500 g/ha): 0
Plant response rating, Purple nutsedge (purple nutsedge; [1]): 0
Plant response rating, Purple nutsedge (purple nutsedge; [2]): 0
Purple nutsedge plant response rating (purple nutsedge; [3]): 0
Purple nutsedge plant response rating (purple nutsedge; [4]): 10
Plant response rating, Purple nutsedge (purple nutsedge; Rate 250 g/ha): 10
Plant response rating, Purple nutsedge (purple nutsedge; Rate 500 g/ha): 30
Plant response rating, Sandbur (sandbur; [1]): 0
Plant response rating, Sandbur (sandbur; [2]): 0
Sandbur plant response rating (sandbur; [3]): 30
Sandbur plant response rating (sandbur; [4]): 98
Plant response rating, Sandbur (sandbur; Rate 250 g/ha): 98
Plant response rating, Sandbur (sandbur; Rate 500 g/ha): 100
Plant response rating, Spanishneedles (Spanishneedles; [1]): 0
Plant response rating, Spanishneedles (Spanishneedles; [2]): 0
Spanishneedles plant response rating (Spanishneedles; [3]): 0
Spanishneedles plant response rating (Spanishneedles; [4]): 0
Plant response rating, Spanishneedles (Spanishneedles; Rate 500 g/ha): 20
Plant response rating, Surinam grass (surinam grass; [1]): 0
Plant response rating, Surinam grass (surinam grass; [2]): 65
Surinam grass plant response rating (surinam grass; [3]): 65
Surinam grass plant response rating (surinam grass; [4]): 98
Plant response rating, Surinam grass (surinam grass; Rate 250 g/ha): 98
Plant response rating, Surinam grass (surinam grass; Rate 500 g/ha): 100
Plant response rating, Tall Mallow (tall mallow; [1]): 0
Plant response rating, Tall Mallow (tall mallow; [2]): 0
Tall Mallow plant response rating (tall mallow; [3]): 0
Tall Mallow plant response rating (tall mallow; [4]): 10
Plant response rating, Tall Mallow (tall mallow; Rate 250 g/ha): 45
Plant response rating, Tall Mallow (tall mallow; Rate 500 g/ha): 98

CC(C)N(C(=O)n1oc(=O)n(C2CCCCC2)c1=O)c1ccc(F)cc1 [Compound 110]
Plant response rating, Alexandergrass (Alexandergrass; Rate 250 g/ha): 100
Plant response rating, Alexandergrass (Alexandergrass; Rate 500 g/ha): 100
Plant response rating, Bermudagrass (bermuda-grass; Rate 250 g/ha): 100
Plant response rating, Bermudagrass (bermuda-grass; Rate 500 g/ha): 100
Plant response rating, C. purslane (common pursiane; [5]): 0
Plant response rating, C. purslane (common pursiane; [6]): 0
Plant response rating, C. ragweed (common ragweed; Rate 250 g/ha): 0
Plant response rating, C. ragweed (common ragweed; Rate 500 g/ha): 0
Plant response rating, Com. groundsel (common groundsel; Rate 250 g/ha): 20
Plant response rating, Com. groundsel (common groundsel; Rate 500 g/ha): 20
Plant response rating, Goosegrass (goosegrass; Rate 250 g/ha): 100
Plant response rating, Goosegrass (goosegrass; Rate 500 g/ha): 100
Plant response rating, Guineagrass (guineagrass; Rate 250 g/ha): 100
Plant response rating, Guineagrass (guineagrass; Rate 500 g/ha): 100
Plant response rating, Johnsongrass (Johnson grass; Rate 250 g/ha): 20
Plant response rating, Johnsongrass (Johnson grass; Rate 500 g/ha): 45
Plant response rating, Large crabgrass (large crabgrass; Rate 250 g/ha): 100
Plant response rating, Large crabgrass (large crabgrass; Rate 500 g/ha): 100
Plant response rating, P. morninglory (pitted morningglory; Rate 250 g/ha): 0
Plant response rating, P. morninglory (pitted morningglory; Rate 500 g/ha): 0
Plant response rating, Purple nutsedge (purple nutsedge; Rate 250 g/ha): 0
Plant response rating, Purple nutsedge (purple nutsedge; Rate 500 g/ha): 0
Plant response rating, Sandbur (sandbur; Rate 250 g/ha): 98
Plant response rating, Sandbur (sandbur; Rate 500 g/ha): 98
Plant response rating, Spanishneedles (Spanishneedles; Rate 500 g/ha): 0
Plant response rating, Surinam grass (surinam grass; Rate 250 g/ha): 70
Plant response rating, Surinam grass (surinam grass; Rate 500 g/ha): 85
Plant response rating, Tall Mallow (tall mallow; Rate 250 g/ha): 0
Plant response rating, Tall Mallow (tall mallow; Rate 500 g/ha): 0
